# Measured values as given in patent US8772290B2, “Alpha-arylmethoxyacrylate derivative, preparation method thereof, and pharmaceutical composition containing same” (Oscotech Inc., priority 2010, dated 2014).
# Test system: HIF
# Assay: Assay for inhibitory activity against HIF activity (HIF1 luciferase reporter cell line)
# Type: cell-based, human
# Conditions: Homo sapiens; HEK293 HIF1 reporter cell line, 1% oxygen, 6 hours, luciferase activity 50% inhibited
# Text: In order to assay the compounds of the present invention for inhibitory activity against HIF activity, the HIF1 reporter plasmid (Panomics) that is designed to control the expression of luciferase by HIF was employed. The HIF1 reporter plasmid and the pTK-Hyg plasmid (Clontech), which carries a hygromycin resistant gene, were co-transfected into the HEK293 cell line (the Korean Cell Line Bank, KCLB No. 21573), derived from the human kidney, with the aid of Effectene transfection reagent (Qiagen). Then, the cells were cultured for 3 weeks on a medium containing 200 μg/mL hygromycin to select transformants resistant to hygromycin. The cell colonies derived from single cells were transferred to 24-well plates to secure a reporter cell line. The cells were seeded at a density of 4×10^4 cells/well into 96-well plates containing DMEM and incubated for 24 hours before treatment with the compounds of the present invention at a concentration of 25 μM, 5 μM, 1 μM, 200 nM, 40 nM, 8 nM, 1.6 nM, 320 pM, 64 pM, 12.8 pM, 2.56 pM, 512 fM, 102 fM, 20.4 fM, or an amount between any two concentrations above as shown in FIGS. 1A to 1C. Under 1% oxygen condition, the cells were incubated for 6 hours and then, the medium was removed. The cells were lyzed by incubation for 5 min with 100 μL of the mixture of Bright-Glo™ luciferase assay buffer and Bright-Glo™ luciferase assay substrate (Promega). The whole cell lysate was transferred to 96-well, white plates (PerkinElmer) and measured for luminescence using Victor™ 3 (PerkinElmer). From the luminescence measurements, IC50 (a concentration of the compound at which luciferase activity was 50% inhibited) was calculated using the GraphPad Prism™ 4 program. The results are summarized in Table 2 and illustrated in FIGS. 1A to 1C.
row,IC50 [nM],SMILES
1,7220,"CO/C=C(/C(=O)OC)c1ccccc1COc1cc(/C(C)=N/O)ccc1OC [Compound 37, (E)-methyl 2-(2-((5-((E)-1-(hydroxyimino)ethyl)-2-methoxyphenoxy)-methyl)phenyl)-3-methoxyacrylate]"
2,1670,"CO/C=C(/C(=O)OC)c1ccccc1COc1cc(/C(C)=N/OCc2ccccc2)ccc1OC [Compound 38, (E)-methyl 2-(2-((5-((E)-1-(benzyloxyimino)ethyl)-2-methoxyphenoxy)-methyl)phenyl)-3-methoxyacrylate]"
3,1410,"CO/C=C(/C(=O)OC)c1ccccc1COc1cc(/C=N/OCc2ccccc2)ccc1OC [Compound 39, (E)-methyl 2-(2-((5-((E)-(benzyloxyimino)methyl)-2-methoxyphenoxy)-methyl)phenyl)-3-methoxyacrylate]"
4,12600,"CCCOc1cc(C)cc(OCc2ccccc2/C(=C\OC)C(=O)OC)c1C [Compound 40, (E)-methyl 2-(2-((2,5-dimethyl-3-propoxyphenoxy)methyl)phenyl)-3-methoxyacrylate]"
5,6120,"CO/C=C(/C(=O)OC)c1ccccc1COc1cc(C)cc(OCc2ccccc2)c1C [Compound 41, (E)-methyl 2-(2-((3-(benzyloxy)-2,5-dimethylphenoxy)methyl)phenyl)-3-methoxyacrylate]"
6,5070,"CCCO/N=C(\C)c1ccc(OC)c(OCc2ccccc2/C(=C\OC)C(=O)OC)c1 [Compound 42, (E)-methyl 2-(2-((2-methoxy-5-((E)-1-(propoxyimino)ethyl)phenoxy)-methyl)phenyl)-3-methoxyacrylate]"
7,960,"CCCO/N=C/c1ccc(OC)c(OCc2ccccc2/C(=C\OC)C(=O)OC)c1 [Compound 43, (E)-methyl 2-(2-((2-methoxy-5-((E)-(propoxyimino)methyl)phenoxy)-methyl)phenyl)-3-methoxyacrylate]"
8,2180,"CO/C=C(/C(=O)OC)c1ccccc1COc1cc(/C(C)=N/OCCc2ccccc2)ccc1OC [Compound 44, (E)-methyl 2-(2-((2-methoxy-5-((E)-1-(phenylethoxyimino)ethyl)-phenoxy)methyl)phenyl)-3-methoxyacrylate]"
9,110,"CO/C=C(/C(=O)OC)c1ccccc1COc1cc(/C=N/OCCc2ccccc2)ccc1OC [Compound 45, (E)-methyl 2-(2-((2-methoxy-5-((E)-1-(phenylethoxyimino)methyl)-phenoxy)methyl)phenyl)-3-methoxyacrylate]"
10,170,"CO/C=C(/C(=O)OC)c1ccccc1COc1cc(/C=N/Oc2ccccc2)ccc1OC [Compound 46, (E)-methyl 2-(2-((2-methoxy-5-((E)-1-(phenoxyimino)methyl)phenoxy)-methyl)phenyl)-3-methoxyacrylate]"
11,30,"CO/C=C(/C(=O)OC)c1ccccc1COc1cccc(/C=N/Oc2ccccc2)c1 [Compound 47, (E)-methyl 2-(2-((3-((E)-1-(phenoxyimino)methyl)phenoxy)methyl)-phenyl)-3-methoxyacrylate]"
12,8580,"CO/C=C(/C(=O)OC)c1ccccc1COc1cc(/C(C)=N/Nc2ccccc2)ccc1OC [Compound 48, (E)-methyl 2-(2-((2-methoxy-5-((E)-1-(phenylhydrazono)ethyl)phenoxy)-methyl)phenyl)-3-methoxyacrylate]"
13,10,"CCCO/N=C/c1cc(C)c(OCc2ccccc2/C(=C\OC)C(=O)OC)cc1C [Compound 49, (E)-methyl 2-(2-((2,5-dimethyl-4-((E)-(propoxyimino)methyl)phenoxy)-methyl)phenyl)-3-methoxyacrylate]"
14,70,"CO/C=C(/C(=O)OC)c1ccccc1COc1cc(C)c(/C=N/OCc2ccccc2)cc1C [Compound 50, (E)-methyl 2-(2-((4-((E)-(benzyloxyimino)methyl)-2,5-dimethylphenoxy)-methyl)phenyl)-3-methoxyacrylate]"
15,20,"CO/C=C(/C(=O)OC)c1ccccc1COc1cc(C)c(/C=N/OCCOc2ccccc2)cc1C [Compound 51, (E)-methyl 2-(2-((2,5-dimethyl-4-((E)-(2-phenoxyethoxyimino)methyl)-phenoxy)methyl)phenyl)-3-methoxyacrylate]"
16,2250,"CO/C=C(/C(=O)OC)c1ccccc1COc1cc(C)c(/C=N/OCC2CO2)cc1C (centres unmarked) [Compound 52, (E)-methyl 2-(2-((2,5-dimethyl-4-((E)-(oxirane-2-ylmethoxyimino)-methyl)phenoxy)methyl)phenyl)-3-methoxyacrylate]"
17,6640,"CO/C=C(/C(=O)OC)c1ccccc1COc1cc(C)c(/C=N/OCCN2CCCC2)cc1C [Compound 53, (E)-methyl 2-(2-((2,5-dimethyl-4-((E)-(2-(pyrrolidin-1-yl)ethoxyimino)-methyl)phenoxy)methyl)phenyl)-3-methoxyacrylate]"
18,6630,"CO/C=C(/C(=O)OC)c1ccccc1COc1cc(C)c(/C=N/OCCN2CCCCC2)cc1C [Compound 54, (E)-methyl 2-(2-((2,5-dimethyl-4-((E)-(2-(piperidin-1-yl)ethoxyimino)-methyl)phenoxy)methyl)phenyl)-3-methoxyacrylate]"
19,3690,"CO/C=C(/C(=O)OC)c1ccccc1COc1cc(C)cc(O)c1C [Compound 55, (E)-methyl 2-(2-((3-hydroxy-2,5-dimethylphenoxy)methyl)phenyl)-3-methoxyacrylate]"
20,2140,"CO/C=C(/C(=O)OC)c1ccccc1COc1cc(C)cc(OCCOc2ccccc2)c1C [Compound 56, (E)-methyl 2-(2-((2,5-dimethyl-3-(2-phenoxyethoxy)phenoxy)methyl)-phenyl)-3-methoxyacrylate]"
21,3940,"CO/C=C(/C(=O)OC)c1ccccc1COc1cc(/C(C)=N/OCc2ccc(C)cc2)ccc1OC [Compound 57, (E)-methyl 2-(2-((2-methoxy-5-((E)-1-(4-methylbenzyloxyimino)ethyl)-phenoxy)methyl)phenyl)-3-methoxyacrylate]"
22,1260,"CO/C=C(/C(=O)OC)c1ccccc1COc1cc(/C=N/OCc2ccc(C)cc2)ccc1OC [Compound 58, (E)-methyl 2-(2-((2-methoxy-5-((E)-1-(4-methylbenzyloxyimino)methyl)-phenoxy)methyl)phenyl)-3-methoxyacrylate]"
23,261,"CO/C=C(/C(=O)OC)c1ccccc1COc1ccc(/C=N/OCCc2ccccc2)cc1C [Compound 59, (E)-methyl 2-(2-((2-methyl-4-((E)-(phenylethoxyimino)methyl)phenoxy)-methyl)phenyl)-3-methoxyacrylate]"
24,110,"CO/C=C(/C(=O)OC)c1ccccc1COc1ccc(/C=N/OCc2ccc(C)cc2)cc1C [Compound 60, (E)-methyl 2-(2-((2-methyl-4-((E)-(4-methylbenzyloxyimino)methyl)-phenoxy)methyl)phenyl)-3-methoxyacrylate]"
25,5540,"CO/C=C(/C(=O)OC)c1ccccc1COc1c(F)cc(/C=N/OCc2ccccc2)cc1OC [Compound 61, (E)-methyl 2-(2-((4-((E)-(benzyloxyimino)methyl)-2-fluoro-6-methoxyphenoxy)methyl)phenyl)-3-methoxyacrylate]"
26,200,"CO/C=C(/C(=O)OC)c1ccccc1COc1ccc(F)c(OCc2ccccc2)c1F [Compound 62, (E)-methyl 2-(2-((3-(benzyloxy)-2,4-difluorophenoxy)methyl)phenyl)-3-methoxyacrylate]"
